# Like-named read-outs stand apart in the source and are kept apart here.
# What was measured:
# TNFα cytokine release = assay: LPS-induced TNFα cytokine release in PBMC (ELISA); format: cell-based; settings: LPS 50 ng/ml, 16 hours, TNFα release by ELISA
# Protocol: Peripheral blood mononuclear cells (PBMC) (0.2 ml at 0.3×10^6/ml) were treated with lipopolysaccharide (LPS) (50 ng/ml) for 16 hours concurrently with each compound tested at different concentrations. TNFα cytokine release was monitored by ELISA. These concentrations were used to calculate the IC50.
# IL1β = assay: IC50IL1β measurements (FIG. 1); format: cell-based
# [1] = U937 monocyte cytotoxicity, Trypan blue staining; format: cell-based; settings: human
# Protocol: (§1) U937 monocytes (0.2 ml at 0.3 x 10^6/ml) were treated with each compound at different concentrations for 16 hours. The cells were then stained with Trypan blue to identify dead cells, and to calculate the LC50. Combined values were used to generate therapeutic indexes (TI)=LC50/IC50.
# U937 monocytes = assay: U937 monocyte cytotoxicity, Trypan blue staining; format: cell-based
# Protocol: as §1
# IMQ induced psoriasis = IMQ induced psoriasis model (Example 7); format: in vivo, BALB/c mice
# Description: An objective scoring system was developed based on the clinical Psoriasis Area and Severity Index (PASI), except that for the mouse model the affected skin area is not taken into account in the overall score. Erythema and scaling were scored independently on a scale from 0 to 4: 0, none; 1, slight; 2, moderate; 3, marked; 4, very marked. The level of erythema was scored using a scoring table with red taints. At day 7, mice were euthanized and spleens were removed for weight measuring.
# Female BALB/c mice at 8 to 11 wk of age received a daily topical dose of 62.5 mg of commercially available IMQ cream (5%) (Aldara; 3M Pharmaceuticals) on the shaved back and the right ear for 5 or 6 consecutive days, translating in a daily dose of 3.125 mg of the active compound. Control mice were treated similarly with a control vehicle cream (Vaseline Lanette cream; Fagron). BC-1261 (also referred to herein as compound 014) were either given in drinking water or applied topically daily. To score the severity of inflammation of the back skin, an objective scoring system was developed based on the clinical Psoriasis Area and Severity Index (PASI), except that for the mouse model the affected skin area is not taken into account in the overall score. Erythema and scaling were scored independently on a scale from 0 to 4: 0, none; 1, slight; 2, moderate; 3, marked; 4, very marked. The level of erythema was scored using a scoring table with red taints. At day 7, mice were euthanized and spleens were removed for weight measuring. Skin and ear sample were also collected for H&E staining and epidermis thickness were measured and graphed. n=5-10 per group, *p<0.05.
# [2] = tested on: lung transplant rejection; assay: Lung transplant acute rejection model (Example 9); format: in vivo, mouse; settings: 5 mg/kg/d i.p. 2 days then drinking water 5 mg/kg/d 5 days
# Protocol: Left lung from BALB/C mouse was surgically removed and transplanted into C57/BL mouse. Mice were given vehicle or BC-1261 (5 mg/kg/d i.p. injection) for 2 days until fully recovered. After that, BC-1261 (also referred to herein as compound 014) was administered through drinking water (5 mg/kg/d) for additional 5 days. Mice were then sacrificed, and the transplanted lungs were removed for H&E staining.
# [3] = tested on: Pseudomonas aeruginosa strain PA103; assay: Pseudomonas induced pneumonia, Compound 014 (Example 5); format: in vivo, mice; settings: 30 μg or 150 μg IP
# Protocol: Mice were administered either 30 μg or 150 μg of Compound 014 by IP injection, and these mice were then challenged with Pseudomonas aeruginosa strain PA103 (2.5×10^4 CFU/mouse, i.t.) for 18 hours. Mice were monitored on a FlexiVent to measure lung mechanics throughout the procedure. The mice were then sacrificed and lungs were lavaged with saline, harvested, and then homogenized. Lavage cells were processed with cytosin and stained with May-Grunwald and Geimsa, and H&E staining was performed on lung samples. Lavage protein, cell count, and cytokine secretion were measured. (n=4 mice/group, *P<0.05 versus PA103 versus Vehicle)
# [4] = tested on: cigarette smoke induced chronic lung inflammation; assay: Smoke induced chronic lung inflammation (Example 6); format: in vivo, mice; settings: cigarette smoke 5 weeks, single 100 ug dose i.p., 18 hours
# Protocol: Mice were exposed to cigarette smoke for 5 weeks before a single 100 ug dose of Compound 014 was administered by i.p. injection. The mice were euthanized 18 hours later, and lungs were lavaged with saline, harvested, and then homogenized. Lavage protein, cell counts and cytokine secretion were measured. (n=3 mice/group, *P<0.05 versus control)
# [5] = tested on: Dexamethasone-induced muscle atrophy; assay: Dexamethasone induced muscle myopathy model (Example 8); format: in vivo, C57BL mice
# Protocol: C57BL mice were given daily i.p. injection of 0.1 ml of vehicle or Dexamethasone (10 mg/kg/d) for 14 days. Some mice were also given BC-1261 (also referred to herein as compound 014) in drinking water with estimated dose of 0.5, 2 and 5 mg/kg/d. Mice were then sacrificed and (tibialis anterior)TA muscle were removed, photographed (A), weighted (C), processed for H&E staining (B) and protein immunoblotting (E).
# [6] = U937 monocytes, 16 hours, Trypan blue dead cells, read-out: LC50
# [7] = therapeutic index (TI)=LC50/IC50
# [8] = PA103, vs vehicle control infected mice, FIG. 9
# [9] = Dexamethasone 10 mg/kg/d i.p. 14 days
structure (smiles),measurement,setting,value
"c1ccc(CNCCNCc2ccccc2)cc1 [Benzathine, reference compound]",IC50,TNFα cytokine release,25 µg/mL
same,IC50,IL1β,25 µg/mL
same,CC50 at 16 h,[1],400 µg/mL
same,TI,"U937 monocytes; human, 16 h",16
c1cc(N2CCOCC2)ccc1CNCCNCc1ccc(N2CCOCC2)cc1 [Compound 001],IC50,TNFα cytokine release,20 µg/mL
same,CC50 at 16 h,[1]; [6],260 µg/mL
same,TI,U937 monocytes; [7],13
c1cc(N2CCCC2)ccc1CNCCNCc1ccc(N2CCCC2)cc1 [Compound 002],IC50,TNFα cytokine release,0.6 µg/mL
same,CC50 at 16 h,[1]; [6],7 µg/mL
same,TI,U937 monocytes; [7],11
c1cn(-c2ccc(CNCCNCc3ccc(-n4ccnc4)cc3)cc2)cn1 [Compound 003],IC50,TNFα cytokine release,0.7 µg/mL
same,CC50 at 16 h,[1]; [6],130 µg/mL
same,TI,U937 monocytes; [7],142
c1cc(N2CCCCC2)ccc1CNCCNCc1ccc(N2CCCCC2)cc1 [Compound 004],IC50,TNFα cytokine release,0.8 µg/mL
same,IC50,IL1β,0.8 µg/mL
same,CC50 at 16 h,[1]; [6],27 µg/mL
same,TI,U937 monocytes; [7],33
c1ccc(-c2ccc(CNCCNCc3ccc(-c4ccccn4)cc3)cc2)nc1 [Compound 005],IC50,TNFα cytokine release,0.9 µg/mL
same,IC50,IL1β,0.9 µg/mL
same,TI,U937 monocytes; [7],96
c1cc(N2CCCC2)ccc1CNCCCCNCc1ccc(N2CCCC2)cc1 [Compound 006],IC50,TNFα cytokine release,1 µg/mL
same,CC50 at 16 h,[1]; [6],1 µg/mL
same,TI,U937 monocytes; [7],1
c1cc(N2CCCC2)ccc1CNCCCNCc1ccc(N2CCCC2)cc1 [Compound 007],IC50,TNFα cytokine release,1.1 µg/mL
same,CC50 at 16 h,[1]; [6],3.2 µg/mL
same,TI,U937 monocytes; [7],2.9
c1ccc(CNCCNCc2ccc(-c3ccccn3)cc2)nc1 [Compound 008],IC50,TNFα cytokine release,1.5 µg/mL
same,CC50 at 16 h,[1]; [6],45 µg/mL
same,TI,U937 monocytes; [7],30
c1cnn(-c2ccc(CNCCNCc3ccc(-n4cccn4)cc3)cc2)c1 [Compound 009],IC50,TNFα cytokine release,1.4 µg/mL
same,CC50 at 16 h,[1]; [6],80 µg/mL
same,TI,U937 monocytes; [7],57
c1ccc(-c2ccc(CNCCCCNCc3ccc(-c4ccccn4)cc3)cc2)nc1 [Compound 010],IC50,TNFα cytokine release,1.5 µg/mL
same,IC50,IL1β,1.5 µg/mL
same,CC50 at 16 h,[1]; [6],22 µg/mL
same,TI,U937 monocytes; [7],14.7
c1csc(-c2ccc(CNCCNCc3ccc(-c4nccs4)cc3)cc2)n1 [Compound 011],IC50,TNFα cytokine release,0.4 µg/mL
same,CC50 at 16 h,[1]; [6],8.5 µg/mL
same,TI,U937 monocytes; [7],21.3
c1csc(-c2ccc(CNCCNCc3ccc(-c4cccs4)cc3)cc2)c1 [Compound 012],IC50,TNFα cytokine release,1.1 µg/mL
same,CC50 at 16 h,[1]; [6],1.8 µg/mL
same,TI,U937 monocytes; [7],1.6
c1coc(-c2ccc(CNCCNCc3ccc(-c4ccco4)cc3)cc2)c1 [Compound 013],IC50,TNFα cytokine release,1.9 µg/mL
same,CC50 at 16 h,[1]; [6],5.5 µg/mL
same,TI,U937 monocytes; [7],2.8
c1cnc(-c2ccc(CNCCNCc3ccc(-c4ncccn4)cc3)cc2)nc1 [Compound 014],ear thickness,IMQ induced psoriasis; IMQ model,reduces
same,gross appearance,IMQ induced psoriasis; IMQ model,reduces
same,spleen weight,"IMQ induced psoriasis; IMQ model, day 7",reduces
same,psoriasis index,"IMQ induced psoriasis; IMQ model, score based on PASI",reduces
same,IMQ induced psoriasis,"IMQ induced psoriasis; in drinking water or applied topically daily, BALB/C mice, FIGS. 13-17",effectively ameliorates
same,neutrophilia infiltrates induced by lung transplant rejection,[2],effectively ameliorates
same,"transplanted lung H&E staining, infiltrates",[2]; vs vehicle group,completely protected lung
same,IC50,TNFα cytokine release,0.4 µg/mL
same,adverse effects of Pseudomonas on lung mechanics,"[3]; PA103 2.5×10^4 CFU/mouse i.t., 18 hours",significantly ameliorated
same,lavage cell counts,[3]; [8],reduced
same,lavage protein concentration,[3]; [8],reduced
same,lavage pro-inflammatory cytokine levels,"[3]; PA103, vs vehicle control infected mice, FIG. 9C",reduction
same,cell infiltrates (H&E staining),"[3]; PA103, vs vehicle control mice, FIG. 11",significantly reduced
same,neutrophils in May-Grunwald and Geimsa smears,"[3]; PA103, vs vehicle control smears, FIG. 10",significantly fewer neutrophils
same,IC50,IL1β,0.4 µg/mL
same,lavage cell counts,[4]; FIG. 12,reduced
same,lavage protein concentration,[4]; FIG. 12,reduced
same,lavage pro-inflammatory cytokine levels,[4]; FIG. 12C,reduction
same,CC50 at 16 h,[1]; [6],410 µg/mL
same,TI,U937 monocytes; [7],1025
same,TRAF6 protein in TA muscle (immunoblotting),[5]; [9],degrading up-regulated TRAF6 protein
same,"muscle wasting (cross sectional measurements, TA muscle H&E staining)",[5]; [9],prevented
same,Dexamethasone-induced muscle atrophy,"[5]; drinking water 0.5, 2 and 5 mg/kg/d, Dexamethasone 10 mg/kg/d i.p. 14 days",attenuates
same,dexamethasone-induced tibialis anterior muscle loss,[5]; even at 0.5 mg/kg/d in drinking water,significantly ameliorates
c1ccc(-c2ccc(CNCCNCc3ccc(-c4ccccc4)cc3)cc2)cc1 [Compound 015],IC50,TNFα cytokine release,2 µg/mL
same,IC50,IL1β,2 µg/mL
same,CC50 at 16 h,[1]; [6],2 µg/mL
same,TI,U937 monocytes; [7],1
c1cnc(-c2ccc(CNCCCCNCc3ccc(-c4ncccn4)cc3)cc2)nc1 [Compound 016],IC50,TNFα cytokine release,4 µg/mL
same,CC50 at 16 h,[1]; [6],> 100 µg/mL
same,TI,U937 monocytes; [7],>25
c1cc(N2CCCC2)ccc1CNCCCCCNCc1ccc(N2CCCC2)cc1 [Compound 017],IC50,TNFα cytokine release,0.2 µg/mL
same,CC50 at 16 h,[1]; [6],4 µg/mL
same,TI,U937 monocytes; [7],20
Fc1cc(CNCCCCNCc2ccc(N3CCCC3)c(F)c2)ccc1N1CCCC1 [Compound 018],IC50,TNFα cytokine release,0.1 µg/mL
same,CC50 at 16 h,[1]; [6],0.4 µg/mL
same,TI,U937 monocytes; [7],4
Cc1cc(CNCCCCNCc2ccc(N3CCCC3)c(C)c2)ccc1N1CCCC1 [Compound 019],IC50,TNFα cytokine release,0.5 µg/mL
same,CC50 at 16 h,[1]; [6],1 µg/mL
same,TI,U937 monocytes; [7],2
Cc1cc(N2CCCC2)ccc1CNCCCCNCc1ccc(N2CCCC2)cc1C [Compound 020],IC50,TNFα cytokine release,0.2 µg/mL
same,CC50 at 16 h,[1]; [6],2 µg/mL
same,TI,U937 monocytes; [7],10

# Reference: patent publication US10092526B2, “Compositions and methods for treating respiratory injury or disease” (University of Pittsburgh—Of the Commonwealth System of …, priority 2013, dated 2018)
